Legend:
[1] = test system: epimastigote of T. cruzi Dm28; assay: Trypanocidal activity (MTT) on epimastigotes; type: cell-based; conditions: Trypanosoma cruzi, 100 µM, 24 h, n.a = not active, read-out: % T. cruzi Epimastigote (trypanocidal effect)
Protocol: As a preliminary step, a study of nitroisoxazole derivatives on the epimastigote form of T. cruzi was performed. Despite the epimastigote form not being a clinical form present in mammals, its easy handling has allowed screening for the trypanocidal activity of various compounds. It is worth noting that, during the intracellular life cycle of the parasite, a form similar to the epimastigote, which is biochemically and morphologically identical to the form present in the vector, has been described. […] RPMI 1640 medium) for 24 h. […] The effects of the compounds on trypomastigote and Vero cell viability were evaluated by tetrazolium salt reduction assay (MTT). […] The plates were kept overnight at 37 °C (28 °C for epimastigotes), and the optical density (OD) was determined using a 96-well microplate reader (Vantaa, Finland) at 570 nm. Under these conditions, the OD is directly proportional to each well’s viable number of cells. The experiments were performed in triplicate across three different assays.

[2] = ORAC-FL antioxidant capacity; conditions: relative to Trolox; phosphate buffer 75 mM, pH 7.4, 37 °C
Protocol: To corroborate the generation of the nitro radical, the antioxidant capacity of the series under study was determined by ORAC-FL methodology, employing a fluorescent probe to capture oxygen-centered radicals (Table 2). The ORAC-FL values of the studied compounds are close to the reference value of Trolox, indicating a low antioxidant capacity. For compounds (1-3), the presence of amino substituents decreases antioxidant activity due to their […] characteristics, preventing the presence of labile hydrogens. […] Compounds 4 and 10 present similar ORAC indexes as aromatic rings with high electron density insert the transfer of labile protons. Antioxidant capacity was determined using the ORAC-fluorescence methodology (ORAC-FL). The analysis used a 96-well white polystyrene plate reader (EnSpire multimode PerkinElmer, Waltham, MA, USA). The reaction was carried out in phosphate buffer (75 mM, pH 7.4). […] A blank with FL and AAPH, using dimethyl sulfoxide instead of the antioxidant solution, was used in each assay. […] The inhibitor capacity was expressed as ORAC-FL values and quantified by integrating the area under the curve (AUCNET). All reaction mixtures were prepared in triplicate, and at least three independent assays were performed for each sample. The area under the fluorescence decay curve (AUC) was calculated by integrating the fluorescence decay where F0 is the initial fluorescence read at 0 min, and F is the fluorescence read at the time. The AUCNET corresponding to the sample was calculated by subtracting the AUC corresponding to the blank. Data were processed using Origin […].5 SR2 (San Francisco, CA, USA). The ORAC-FL indices were calculated according to the following Equation (1): (1) ORAC-[…]]

[3] = Cyclic voltammetry (reduction of the nitro group); type: physicochemical; design: key to −EpcI / −EpcII / −EpaII / −EpaI: potentials in V vs Ag/AgCl; |ΔEp|: unit not given here
Source text: The chemistry mechanism of reduction in nitroisoxazole derivatives was investigated using cyclic voltammetry.
The peak near −1.32 V corresponds to a quasi-reversible one-electron transfer, according to the criteria of Nicholson–Shain [26] (Table 1), attributable to the species −NO2/NO2.− . The latter species stable anion radical at room temperature. […] An irreversible peak at −0.93 V to the mono-electronic transfer −HNO2/HNO2.− is observed, coupled with a chemical reaction associated with […] of the formed radical. This was evidenced by the addition of NaOH (1 M), which caused a decrease in the Ic peak (Figure 2c).
As previously described, an irreversible signal assigned to hydroxylamine oxidation to a nitroso derivative is also observed for N-acylhydrazones organometallic compounds with a pendant 5-nitrofuryl group. […] Compound 7, which has the least negative reduction potential, can be attributed to introducing a nitro group in the para position of the nitroisoxazole ring. This effect can also be observed in derivatives containing halogens in the same position.
Electrochemical characterization of the new compounds was performed through cyclic voltammetry (CV) on a 693 VA Metrohm instrument (Tokyo, Japan) equipped with a 694 VA Stand converter and 693 VA processor. Potentials were recorded against the Ag/AgCl reference electrode; a hanging drop of mercury (HDME) was used as a working electrode, and platinum was used as an auxiliary electrode. Tetrabutylammonium perchlorate (TBAP, 0.1 M) in DMSO was used as a supporting electrolyte under an N2 atmosphere at room temperature. Using Nicholson´s procedure, the Ipa/Ipc values (RNO2/RNO2^−) were measured from each cyclic voltammogram with a scan rate between 0.1 and 2.5 V/s.

[4] = cyclic voltammetry at 2.0 V/s, DMSO, 0.1 M TBAP, vs Ag/AgCl

SMILES	melting point [°C]	Ipa/Ipc ([3]; cyclic voltammetry at 2.0 V/s)	|ΔEp| ([3]; cyclic voltammetry at 2.0 V/s)	−EpaII [3, 4]	−EpcII [3, 4]	peak potential, quasi-reversible one-electron transfer −NO2/NO2.− ([3]; cyclic voltammogram, Figure 2a) [V]	−EpaI [3, 4]	−EpcI [3, 4]	killing at 100 µM [1] [%]	ORAC-FL Index [2]
O=CCc1ccc(Br)cc1 [Compound P2, 4-bromophenyl acetaldehyde]									5 ± 2	
Cc1c(C)c2c(c(C)c1O)CCC(C)(C(=O)O)O2 (stereo not drawn) [Trolox, reference compound]										1.00 ± 0.01
Cc1noc(/C=C/c2ccc([N+](=O)[O-])cc2)c1[N+](=O)[O-] [Compound 7, (E)-3-Methyl-4-nitro-5-(4-nitrostyryl)isoxazole]	225 to 227	−0.44	70	0.64	0.71				36 ± 2	0.57 ± 0.08
Cc1noc(/C=C/c2ccccc2Br)c1[N+](=O)[O-] [Compound 15, (E)-5-(2-Bromostyryl)-3-methyl-4-nitroisoxazole]	169 to 172	−0.14	100	0.95	1.10		0.70	0.80	29 ± 2	0.8 ± 0.3
Cc1noc(C)c1[N+](=O)[O-] [Compound P1, 3,5-dimethyl-4-nitroisoxazole]									14 ± 3	
Cc1noc(/C=C/c2ccc(C(F)(F)F)cc2)c1[N+](=O)[O-] [Compound 6, (E)-3-Methyl-4-nitro-5-(4-(trifluoromethyl)styryl)isoxazole]	187 to 189				0.74				28 ± 2	0.8 ± 0.1

Now from value to compound, other results behind:

melting point [°C]	Ipa/Ipc ([3]; cyclic voltammetry at 2.0 V/s)	|ΔEp| ([3]; cyclic voltammetry at 2.0 V/s)	−EpaII [3, 4]	−EpcII [3, 4]	peak potential, quasi-reversible one-electron transfer −NO2/NO2.− ([3]; cyclic voltammogram, Figure 2a) [V]	−EpaI [3, 4]	−EpcI [3, 4]	SMILES	killing at 100 µM [1] [%]	ORAC-FL Index [2]
145 to 147	0.32	120	1.20	1.32	~−1.32			Cc1noc(/C=C/N2CCCC2)c1[N+](=O)[O-] [Compound 2, (E)-3-Methyl-4-nitro-5-(2-(pyrrolidin-1-yl)vinyl)isoxazole]	19 ± 3	0.14 ± 0.05
154 to 156	−0.44	140	1.19	1.33				Cc1noc(/C=C/N(C)C)c1[N+](=O)[O-] [Compound 1, (E)-N,N-Dimethyl-2-(3-methyl-4-nitroisoxazol-5-yl)ethen-1-amine]	18 ± 1	0.9 ± 0.2
145 to 147	−0.16	100	0.74	0.84				Cc1noc(/C=C/c2ccco2)c1[N+](=O)[O-] [Compound 10, (E)-5-(2-(Furan-2-yl)vinyl)-3-methyl-4-nitroisoxazole]	42 ± 2	0.36 ± 0.07
